{"source": "patent US11690810B2", "about": "“Combination treatment of bacterial infection” (The Chinese University of Hong Kong, priority 2018, dated 2023)", "experiment_in_all_cases": "MIC and checkerboard (FIC) assay", "key": {"[1]": {"tested_on": "S. aureus ATCC25923 (methicillin sensitive)", "details": "Staphylococcus aureus"}, "CA MRSA W44": {"tested_on": "CA MRSA W44"}, "CA MRSA W101": {"tested_on": "CA MRSA W101"}, "CA MRSA W103": {"tested_on": "CA MRSA W103"}, "CA MRSA W106": {"tested_on": "CA MRSA W106"}, "CA MRSA W113": {"tested_on": "CA MRSA W113"}, "CA MRSA W114": {"tested_on": "CA MRSA W114"}, "HA MRSA W232": {"tested_on": "HA MRSA W232"}, "HA MRSA W233": {"tested_on": "HA MRSA W233"}, "HA MRSA W235": {"tested_on": "HA MRSA W235"}, "HA MRSA W238": {"tested_on": "HA MRSA W238"}, "HA MRSA W239": {"tested_on": "HA MRSA W239"}, "HA MRSA W240": {"tested_on": "HA MRSA W240"}, "[2]": {"details": "Staphylococcus aureus, MRSA, read-out: MIC alone"}}}
{"smiles": "O=C(O[C@@H]1Cc2c(O)cc(O)cc2O[C@@H]1c1ccc(O)c(O)c1)c1cc(O)c(O)c(O)c1", "note": "[ECG, epicatechin gallate]", "values": [{"measurement": "MIC90", "setting": "[1]; ATCC25923", "value": 128, "unit": "µg/mL"}, {"measurement": "MIC99", "setting": "[1]; ATCC25923, read-out: MIC 99.9", "value": "> 512", "unit": "µg/mL"}, {"measurement": "MIC", "setting": "CA MRSA W44; [2]", "value": 512, "unit": "µg/mL"}, {"measurement": "FIC", "setting": "CA MRSA W44; W44, ECG with Kur", "value": 0.004}, {"measurement": "MIC combine", "setting": "CA MRSA W44; W44, ECG with Kur", "value": 2, "unit": "µg/mL"}, {"measurement": "FIC", "setting": "CA MRSA W44; W44, ECG+Kur+Van", "value": 0.0004}, {"measurement": "MIC combine", "setting": "CA MRSA W44; W44, ECG+Kur+Van", "value": 0.25, "unit": "µg/mL"}, {"measurement": "MIC alone", "setting": "CA MRSA W44; W44, Table 5", "value": 512, "unit": "µg/mL"}, {"measurement": "MIC", "setting": "CA MRSA W101; [2]", "value": 512, "unit": "µg/mL"}, {"measurement": "FIC", "setting": "CA MRSA W101; W101, ECG with Kur", "value": 0.002}, {"measurement": "MIC combine", "setting": "CA MRSA W101; W101, ECG with Kur", "value": 1, "unit": "µg/mL"}, {"measurement": "MIC", "setting": "CA MRSA W103; [2]", "value": 512, "unit": "µg/mL"}, {"measurement": "FIC", "setting": "CA MRSA W103; W103, ECG with Kur", "value": 0.002}, {"measurement": "MIC combine", "setting": "CA MRSA W103; W103, ECG with Kur", "value": 1, "unit": "µg/mL"}, {"measurement": "MIC", "setting": "CA MRSA W106; [2]", "value": 512, "unit": "µg/mL"}, {"measurement": "FIC", "setting": "CA MRSA W106; W106, ECG with Kur", "value": 0.002}, {"measurement": "MIC combine", "setting": "CA MRSA W106; W106, ECG with Kur", "value": 1, "unit": "µg/mL"}, {"measurement": "MIC", "setting": "CA MRSA W113; [2]", "value": 512, "unit": "µg/mL"}, {"measurement": "FIC", "setting": "CA MRSA W113; W113, ECG with Kur", "value": 0.002}, {"measurement": "MIC combine", "setting": "CA MRSA W113; W113, ECG with Kur", "value": 1, "unit": "µg/mL"}, {"measurement": "MIC", "setting": "CA MRSA W114; [2]", "value": 512, "unit": "µg/mL"}, {"measurement": "FIC", "setting": "CA MRSA W114; W114, ECG with Kur", "value": 0.002}, {"measurement": "MIC combine", "setting": "CA MRSA W114; W114, ECG with Kur", "value": 1, "unit": "µg/mL"}, {"measurement": "MIC", "setting": "HA MRSA W232; [2]", "value": 512, "unit": "µg/mL"}, {"measurement": "FIC", "setting": "HA MRSA W232; W232, ECG with Kur", "value": 0.008}, {"measurement": "MIC combine", "setting": "HA MRSA W232; W232, ECG with Kur", "value": 4, "unit": "µg/mL"}, {"measurement": "FIC", "setting": "HA MRSA W232; W232, ECG+Kur+Van", "value": 0.03}, {"measurement": "MIC combine", "setting": "HA MRSA W232; W232, ECG+Kur+Van", "value": 8, "unit": "µg/mL"}, {"measurement": "MIC alone", "setting": "HA MRSA W232; W232, Table 5", "value": 512, "unit": "µg/mL"}, {"measurement": "MIC", "setting": "HA MRSA W233; [2]", "value": 512, "unit": "µg/mL"}, {"measurement": "MIC alone", "setting": "HA MRSA W233; W233 (gentamicin resistant)", "value": 512, "unit": "µg/mL"}, {"measurement": "FIC", "setting": "HA MRSA W233; W233, ECG with Kur", "value": 0.004}, {"measurement": "MIC combine", "setting": "HA MRSA W233; W233, ECG with Kur", "value": 2, "unit": "µg/mL"}, {"measurement": "FIC", "setting": "HA MRSA W233; W233, ECG+Kur+Gen", "value": 0.0005}, {"measurement": "MIC combine", "setting": "HA MRSA W233; W233, ECG+Kur+Gen", "value": 0.25, "unit": "µg/mL"}, {"measurement": "FIC", "setting": "HA MRSA W233; W233, ECG+Kur+Van", "value": 0.03}, {"measurement": "MIC combine", "setting": "HA MRSA W233; W233, ECG+Kur+Van", "value": 8, "unit": "µg/mL"}, {"measurement": "FIC", "setting": "HA MRSA W233; W233, ECG+Kur, no Gen", "value": 0.03}, {"measurement": "MIC combine", "setting": "HA MRSA W233; W233, ECG+Kur, no Gen", "value": 16, "unit": "µg/mL"}, {"measurement": "MIC alone", "setting": "HA MRSA W233; W233, Table 5", "value": 512, "unit": "µg/mL"}, {"measurement": "MIC", "setting": "HA MRSA W235; [2]", "value": 512, "unit": "µg/mL"}, {"measurement": "FIC", "setting": "HA MRSA W235; W235, ECG with Kur", "value": 0.002}, {"measurement": "MIC combine", "setting": "HA MRSA W235; W235, ECG with Kur", "value": 1, "unit": "µg/mL"}, {"measurement": "MIC", "setting": "HA MRSA W238; [2]", "value": 512, "unit": "µg/mL"}, {"measurement": "MIC alone", "setting": "HA MRSA W238; W238 (gentamicin resistant)", "value": 512, "unit": "µg/mL"}, {"measurement": "FIC", "setting": "HA MRSA W238; W238, ECG with Kur", "value": 0.002}, {"measurement": "MIC combine", "setting": "HA MRSA W238; W238, ECG with Kur", "value": 1, "unit": "µg/mL"}, {"measurement": "FIC", "setting": "HA MRSA W238; W238, ECG+Kur+Gen", "value": 0.0004}, {"measurement": "MIC combine", "setting": "HA MRSA W238; W238, ECG+Kur+Gen", "value": 0.25, "unit": "µg/mL"}, {"measurement": "FIC", "setting": "HA MRSA W238; W238, ECG+Kur+Van", "value": 0.0004}, {"measurement": "MIC combine", "setting": "HA MRSA W238; W238, ECG+Kur+Van", "value": 0.25, "unit": "µg/mL"}, {"measurement": "FIC", "setting": "HA MRSA W238; W238, ECG+Kur, no Gen", "value": 0.0004}, {"measurement": "MIC combine", "setting": "HA MRSA W238; W238, ECG+Kur, no Gen", "value": 0.5, "unit": "µg/mL"}, {"measurement": "MIC alone", "setting": "HA MRSA W238; W238, Table 5", "value": 512, "unit": "µg/mL"}, {"measurement": "MIC", "setting": "HA MRSA W239; [2]", "value": 512, "unit": "µg/mL"}, {"measurement": "FIC", "setting": "HA MRSA W239; W239, ECG with Kur", "value": 0.002}, {"measurement": "MIC combine", "setting": "HA MRSA W239; W239, ECG with Kur", "value": 1, "unit": "µg/mL"}, {"measurement": "FIC", "setting": "HA MRSA W239; W239, ECG+Kur+Van", "value": 0.0009}, {"measurement": "MIC combine", "setting": "HA MRSA W239; W239, ECG+Kur+Van", "value": 0.5, "unit": "µg/mL"}, {"measurement": "MIC alone", "setting": "HA MRSA W239; W239, Table 5", "value": 512, "unit": "µg/mL"}, {"measurement": "MIC", "setting": "HA MRSA W240; [2]", "value": 512, "unit": "µg/mL"}, {"measurement": "FIC", "setting": "HA MRSA W240; W240, ECG with Kur", "value": 0.008}, {"measurement": "MIC combine", "setting": "HA MRSA W240; W240, ECG with Kur", "value": 4, "unit": "µg/mL"}]}
